Reference: patent US10065990B2, “Cyclic peptide compound, and preparation method, pharmaceutical composition and use thereof” (HANGZHOU GUANYU BIO-MEDICAL CO., LTD, priority 2013, dated 2018)
Where two headings read alike, the source gives them in different places.

Experiments:
[1] = tested on: HCC827 (human non-small cell lung cancer cells); assay: MTT cancer cell growth inhibition; type: cell-based; details: Homo sapiens, HCC827, 72 h, MTT, 72 hours incubation, HCC827 cells; read-out: GI50 HCC827
Excerpt: (§1) MTT assay principle is yellow MTT can penetrate membrane into the cell, succinic dehydrogenase of the mitochondria in living cells can make exogenous MTT reduction of insoluble in water of blue-violet acicular formazan for crystallization and deposition in the cell, crystallization can be dissolved dimethyl sulfoxide (DMSO) solution, detected its absorbance at 490 nm/570 nm wavelength by enzyme-linked immunosorbent assay, which can reflect the number of cells.
(§2) Using DMEM+10% FBS culture medium or using 1640+10% FBS culture, respectively.
(§3) a) Cells were seeded in 96-well plates with the inoculation of 1500/well, 190 μl/hole, 37° C., 5% of CO2 incubator overnight;
(§4) b) The next day each well was added 10 μl of different drugs. The final concentration of drug was 10^−5˜10^−10M, three parallel holes; 37° C., 5% CO2 culture incubator for 72 hours incubation;
(§5) c) Per well was added 20 μl 5 mg/ml of MTT, 37° C., 5% CO2 culture incubator for 4 hours incubation;
(§6) d) The supernatant was discarded. Each well was added 100 μl of DMSO and oscillation;
(§7) e) 570 nm readings. Calculate cell viability. GI50 calculation based on the results.

[2] = tested on: DU145 (human prostate cancer cells); assay: MTT cancer cell growth inhibition; type: cell-based; details: Homo sapiens, DU-145, 72 h, MTT, 72 hours incubation, read-out: GI50 Du1
Excerpt: as §1, §2, §3, §4, §5, §6, §7

[3] = tested on: KBM-5 (human chronic myelogenous leukemia); assay: MTT cancer cell growth inhibition; type: cell-based; details: Homo sapiens, KBM5, 72 h, MTT, 72 hours incubation, KBM-5 cells; read-out: GI50 KBM-5
Excerpt: as §1, §2, §3, §4, §5, §6, §7

[4] = tested on: H1975 (non-small cell lung adenocarcinoma); assay: MTT cancer cell growth inhibition; type: cell-based; details: Homo sapiens, NCI-H1975, 72 h, MTT, 72 hours incubation, H1975 cells; read-out: GI50 H1975
Excerpt: as §1, §2, §3, §4, §5, §6, §7

[5] = tested on: SGC-7901 (human gastric cancer cells); assay: MTT cancer cell growth inhibition; type: cell-based; details: Homo sapiens, SGC-7901, 72 h, MTT, 72 hours incubation, SGC-7901 cells; read-out: GI50 SGC-7901
Excerpt: as §1, §2, §3, §4, §5, §6, §7

[6] = tested on: N-87 (human gastric cancer cells); assay: MTT cancer cell growth inhibition; type: cell-based; details: Homo sapiens, 72 h, MTT, 72 hours incubation, N-87 cells; read-out: GI50 N-87
Excerpt: as §1, §2, §3, §4, §5, §6, §7

[7] = tested on: Huh-7 (human hepatoma cells); assay: MTT cancer cell growth inhibition; type: cell-based; details: Homo sapiens, Huh-7, 72 h, MTT, 72 hours incubation, Huh-7 cells; read-out: GI50 Huh-7
Excerpt: as §1, §2, §3, §4, §5, §6, §7

[8] = tested on: MCF-7 (human breast cancer cells); assay: MTT cancer cell growth inhibition; type: cell-based; details: Homo sapiens, MCF7, 72 h, 72 hours incubation, read-out: GI50 MCF
Excerpt: as §1, §2, §3, §4, §5, §6, §7

[9] = tested on: Bel-7402 (human hepatoma cells); assay: MTT cancer cell growth inhibition; type: cell-based; details: Homo sapiens, Bel-7402, 72 h, MTT, 72 hours incubation, Bel-7402 cells; read-out: GI50 Bel-7402
Excerpt: as §1, §2, §3, §4, §5, §6, §7

[10] = tested on: BGC-823 (human gastric cancer cells); assay: MTT cancer cell growth inhibition; type: cell-based; details: Homo sapiens, BGC-823, 72 h, MTT, 72 hours incubation, read-out: GI50 BG
Excerpt: as §1, §2, §3, §4, §5, §6, §7

[11] = tested on: MOLT-4 (human acute lymphoblastic leukemia cells); assay: MTT cancer cell growth inhibition; type: cell-based; details: Homo sapiens, MOLT-4, 72 h, MTT, 72 hours incubation, read-out: GI50 Mol
Excerpt: as §1, §2, §3, §4, §5, §6, §7

[12] = tested on: MDA-MB-231 (breast cancer cells); assay: MTT cancer cell growth inhibition; type: cell-based; details: Homo sapiens, MDA-MB-231, 72 h, read-out: GI50 MDA-MB-231, MTT, 72 hours incubation, MDA-MB-231 cells
Excerpt: as §1, §2, §3, §4, §5, §6, §7

[13] = tested on: K562 (human leukemia cells); assay: MTT cancer cell growth inhibition; type: cell-based; details: Homo sapiens, K562, 72 h, MTT, 72 hours incubation, K562 cells; read-out: GI50 K562
Excerpt: as §1, §2, §3, §4, §5, §6, §7

[14] = tested on: Hela (human cervical cancer cells); assay: MTT cancer cell growth inhibition; type: cell-based; details: Homo sapiens, HeLa, 72 h, MTT, 72 hours incubation, read-out: GI50 Hela
Excerpt: as §1, §2, §3, §4, §5, §6, §7

[15] = tested on: A549 (human lung cancer cells); assay: MTT cancer cell growth inhibition; type: cell-based; details: Homo sapiens, A549, 72 h, MTT, 72 hours incubation, read-out: GI50 A54
Excerpt: as §1, §2, §3, §4, §5, §6, §7

[16] = tested on: lncap (prostate cancer cells); assay: MTT cancer cell growth inhibition; type: cell-based; details: Homo sapiens, LNCaP, 72 h, MTT, 72 hours incubation, read-out: GI50 lnca
Excerpt: as §1, §2, §3, §4, §5, §6, §7

[17] = tested on: KBM5-T315I (human chronic myelogenous leukemia); assay: MTT cancer cell growth inhibition; type: cell-based; details: Homo sapiens, 72 h, MTT, 72 hours incubation, KBM5-T315I cells; read-out: GI50 KBM5-T315I
Excerpt: as §1, §2, §3, §4, §5, §6, §7

[18] = tested on: HT1080 (human fibrosarcoma cells); assay: MTT cancer cell growth inhibition; type: cell-based; details: Homo sapiens, HT-1080, 72 h, MTT, 72 hours incubation, read-out: GI50 HT1
Excerpt: as §1, §2, §3, §4, §5, §6, §7

[19] = tested on: PANC-1 (Pac-1, human pancreatic cancer cells); assay: MTT cancer cell growth inhibition; type: cell-based; details: Homo sapiens, PANC-1, 72 h, MTT, 72 hours incubation, read-out: GI50 PAN
Excerpt: as §1, §2, §3, §4, §5, §6, §7

[20] = tested on: U937 (human leukemia cells); assay: MTT cancer cell growth inhibition; type: cell-based; details: Homo sapiens, U-937, 72 h, MTT, 72 hours incubation, read-out: GI50 U93
Excerpt: as §1, §2, §3, §4, §5, §6, §7

HDAC7 = target: T1, HDAC7 (Homo sapiens, UniProt Q8WUI4); assay: HDAC biochemical activity measurement (fluorescent substrate deacetylation);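 on all read-outs here: fluorogenic deacetylation assay using acetyl-lysine substrate at 20 µM, enzyme and compound incubated 30 min at 37 °C, then developer added, fluorescence read at 360/460 nm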; details: for IC50 HDAC7: 37° C. 30 minutes
T1 sequence (Q8WUI4 1-952): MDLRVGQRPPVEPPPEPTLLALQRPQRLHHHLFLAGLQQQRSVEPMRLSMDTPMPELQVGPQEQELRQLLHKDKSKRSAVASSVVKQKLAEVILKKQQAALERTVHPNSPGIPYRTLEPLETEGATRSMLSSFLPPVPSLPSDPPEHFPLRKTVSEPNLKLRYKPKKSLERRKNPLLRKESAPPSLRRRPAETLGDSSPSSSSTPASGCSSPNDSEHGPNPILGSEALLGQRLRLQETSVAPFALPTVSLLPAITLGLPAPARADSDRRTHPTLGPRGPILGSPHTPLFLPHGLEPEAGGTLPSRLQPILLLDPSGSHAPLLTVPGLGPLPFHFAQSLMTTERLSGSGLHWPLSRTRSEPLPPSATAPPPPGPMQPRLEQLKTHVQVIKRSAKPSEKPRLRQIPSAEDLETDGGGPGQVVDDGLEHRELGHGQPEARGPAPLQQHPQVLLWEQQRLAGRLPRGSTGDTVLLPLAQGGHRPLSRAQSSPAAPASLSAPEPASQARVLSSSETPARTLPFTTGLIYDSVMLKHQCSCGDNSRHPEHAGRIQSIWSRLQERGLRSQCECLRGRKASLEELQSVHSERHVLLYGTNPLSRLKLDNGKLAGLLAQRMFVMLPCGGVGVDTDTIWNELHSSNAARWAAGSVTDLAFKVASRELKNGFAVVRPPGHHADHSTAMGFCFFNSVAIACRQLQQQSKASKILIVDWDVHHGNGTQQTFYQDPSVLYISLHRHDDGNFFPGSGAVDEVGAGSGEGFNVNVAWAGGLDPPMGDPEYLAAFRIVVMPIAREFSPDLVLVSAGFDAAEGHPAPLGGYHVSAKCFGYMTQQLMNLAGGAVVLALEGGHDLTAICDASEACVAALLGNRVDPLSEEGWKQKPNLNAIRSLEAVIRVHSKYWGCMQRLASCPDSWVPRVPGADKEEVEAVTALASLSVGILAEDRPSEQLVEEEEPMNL

| GI50 [1] | GI50 [3] | GI50 [4] | GI50 [5] | GI50 [6] | GI50 [7] | GI50 [9] | GI50 [12] | GI50 [13] | GI50 [17] | IC50 HDAC7 (HDAC7) | GI50 ([2]; DU145 cells) | GI50 ([8]; MCF-7 cells) | GI50 ([10]; BGC-823 cells) | GI50 ([11]; MOLT-4 cells) | GI50 ([14]; Hela cells) | GI50 ([15]; A549 cells) | GI50 ([16]; lncap cells) | GI50 ([18]; HT1080 cells) | GI50 ([19]; PANC-1 cells) | also measured | Structure (SMILES) |
| --- | --- | --- | --- | --- | --- | --- | --- | --- | --- | --- | --- | --- | --- | --- | --- | --- | --- | --- | --- | --- | --- |
| 86 nM | 22 nM | 72 nM | 33 nM | 16 nM | 66 nM | 34 nM | 58 nM | 35 nM | 59 nM | no activity |  |  |  |  |  |  |  |  |  | GI50 [2]: 10 nM; GI50 [8]: 20 nM; GI50 [10]: 70 nM; GI50 [11]: 20 nM; GI50 [14]: 80 nM; GI50 [15]: 60 nM; GI50 [16]: 20 nM; GI50 [18]: 40 nM; GI50 [19]: 60 nM; GI50 [20]: 30 nM | C/C=C1\NC(=O)c2cc(F)cc(n2)CNC(=O)C[C@@H](/C=C/CCS)OC(=O)[C@H](CCCCN)NC1=O [Compound 117] |
| 35 nM | 35 nM | 24 nM | 75 nM | 63 nM | 58 nM | 23 nM | 36 nM | 62 nM | 53 nM | no activity | 40 nM | 50 nM | 80 nM | 50 nM | 70 nM | 30 nM | 60 nM | 50 nM | 50 nM | GI50 ([20]; U937 cells): 60 nM | C/C=C1\NC(=O)c2nc(ccc2SC)CNC(=O)C[C@@H](/C=C/CCSC(=O)CCC)OC(=O)[C@H](C(C)C)NC1=O [Compound 159] |
| 26 nM | 83 nM | 57 nM | 28 nM | 46 nM | 53 nM | 55 nM | 45 nM | 83 nM | 33 nM | no activity | 30 nM | 20 nM | 30 nM | 50 nM | 30 nM | 40 nM | 60 nM | 80 nM | 30 nM | GI50 ([20]; U937 cells): 80 nM | C/C=C1\NC(=O)c2nc(ccc2SC)CNC(=O)C[C@@H](/C=C/CCSC(C)=O)OC(=O)[C@@H](C)NC1=O [Compound 220] |
| 35 nM | 53 nM | 18 nM | 87 nM | 64 nM | 46 nM | 31 nM | 81 nM | 78 nM | 42 nM |  | 60 nM | 50 nM | 60 nM | 40 nM | 40 nM | 40 nM | 10 nM | 60 nM | 10 nM | GI50 ([20]; U937 cells): 40 nM; IC50 (μM) HDAC7 (HDAC7): no activity | C/C=C1\NC(=O)c2cc(SCC)cc(n2)CNC(=O)C[C@@H](/C=C/CCSC(=O)CCCCC)OC(=O)[C@H](C(C)C)NC1=O [Compound 254] |
